Measured values published in patent US20120208744A1, “ANTI-MICROBIAL AGENTS AND COMPOSITIONS AND METHODS OF PRODUCTION AND USE THEREOF” (The Penn State Research Foundation, priority 2011, published 2012).

What was measured:
Type in all cases: cell-based, Escherichia coli
[1] = system: TonB; assay: Proteinase K accessibility assay in spheroplasts; settings: wild-type W3110 spheroplasts; pmf collapsed; 60 μM CCCP or 10 mM DNP
Excerpt: Proteinase K accessibility assays. For reversibility assays, spheroplasts were generated from wild-type cells (W3110) and treated with CCCP to collapse pmf. […] Samples were harvested and treated with proteinase K or left untreated. […] To re-establish pmf for the remaining sample, the proteinase K untreated, CCCP-treated spheroplasts were subsequently pelleted, washed, and resuspended in buffer without CCCP. These washed spheroplasts were divided in half. One sample was re-treated with CCCP, and one was treated with solvent only (DMSO). Both were then treated with proteinase K. As a control, whole cells were also treated with proteinase K or left untreated. All manipulations occurred at 4° C.
For standard assays, spheroplasts were prepared and treated with proteinase K as described previously (Larsen et al, 1999, Mol. Microbiol. 31, 1809-1824). The effect of protonophores was examined after treatment of spheroplasts with 60 μM carbonylcyanide-m-chlorophenylhydrazone (CCCP) or 10 mM DNP compared to an equal volume of solvent only, dimethyl sulfoxide (DMSO). After limited proteolysis, TCA precipitated samples were visualized on immunblots of 11% or 15% SDS polyacrylamide gels with TonB-specific monoclonal antibodies or ExbD-specific polyclonal antibodies, respectively. All manipulations occurred at 4° C.

[2] = system: TonB-ExbD complex; assay: Formaldehyde crosslinking in spheroplasts; settings: CCCP-treated W3110 spheroplasts, 60 μM
Protocol: Formaldehyde crosslinking in spheroplasts. Spheroplasts were prepared as above for standard assays and treated with DMSO solvent or 60 μM CCCP. A CCCP-treated sample was also treated with proteinase K for 15 min as described above. For formaldehyde crosslinking, spheroplasts were pelleted and resuspended in 100 mM sodium phosphate buffer, pH 6.8 containing 0.25M sucrose and 2 mM MgSO4. For CCCP-treated spheroplasts, CCCP was maintained in the crosslinking buffer. Samples were treated with 1% monomeric paraformaldehyde (inverting to mix) for 15 min at room temperature. Pellets were solubilized at 60° C. in Laemmli sample buffer.

[3] = system: ferrichrome-mediated iron transport; assay: [55Fe]-ferrichrome uptake, ExbD cys substitutions, with or without CuoP treatment; settings: 0.03 mM CuoP in supplemented 1xM9
Protocol: Since CuoP treatment catalyzed almost 100% dimer formation for some of the cys substitutions, attempts were made to determine activity of the dimeric form. […] The amount of CuoP was reduced 10-fold to 0.03 mM and cells had to be suspended in fully supplemented M9 medium as described in Experimental Procedures.
Activity assays. Initial rates of [^55Fe]-ferrichrome uptake were determined. For assays where cultures were treated with copper-(1,10-phenanthroline)3, harvested cells were pelleted, resuspended in 1×M9 supplemented as described above (no sodium propionate added), and treated with an equal volume 0.06 mM CuoP ([final] 0.03 mM) or 0.5 mM sodium phosphate buffer, pH 7.4 (buffer only) for 5 min, at 37° C. with aeration. Cells were pelleted, and the standard iron transport protocol was followed starting with resuspension in the assay medium.
In all assays the CuoP solution was removed and assays carried out in identical media, but the medium present during the 5 min CuoP treatment was important and differentially affected activity of a wild-type strain.

[4] = system: ferrichrome-mediated iron transport; assay: as above; settings: 0.03 mM CuoP, cells in unsupplemented 1xM9
[5] = system: 55Fe-ferrichrome transport; assay: Transport of 55Fe-loaded ferrichrome (ExbD deletion variants)
Protocol: For assays in 1×M9, 37 μM Fe (proteinase K accessibility, [^55Fe]-ferrichrome uptake, formaldehyde crosslinking, and sucrose density gradient fractionation), the following percentages of arabinose were added at subculture to induce expression of ExbD variants near native levels of ExbD: pKP660=no inducer, pKP761=0.0008%, pKP760=0.0008%, pKP759=0.3% glucose (to repress basal levels of overexpression), pKP758=0.002% glucose (to repress basal levels of overexpression), pKP762=0.0006%, pKP757=0.0007%, pKP756=0.006%, pKP755=0.008%, pKP754=0.15%, pKP753=0.18%, pKP752=0.2%, pKP763=0.18%, pKP764=0.2%, pKP724=0.006%.
Activity assays: Spot titer assays were performed. Initial rates of [^55Fe]-ferrichrome uptake were determined.

Question: For N#CC(C#N)=NNc1cccc(Cl)c1 [CCCP, carbonylcyanide-m-chlorophenylhydrazone], which “TonB conformation (proteinase K sensitivity) after protonophore treatment” value [1] is on record?
Answer: The value was “detection of the previously observed proteinase K resistant conformation of TonB”.

Question: What about the “TonB-ExbD formaldehyde crosslinked complex” value [2] of the same molecule?
Answer: Its value is “not detected”.

Question: Which “TonB conformation (proteinase K sensitivity) after protonophore treatment” value [1] does the source give for O=[N+]([O-])c1ccc(O)c([N+](=O)[O-])c1 [DNP] here?
Answer: Its value is “Identical results”.

Question: Which results are given for “copper-(1,10-phenanthroline)3 [CuoP, reference compound]”?
Answer: effect on iron transport activity of a wild-type strain [3]: did not inhibit activity; iron transport of a wild-type strain remaining after CuoP treatment [4]: about 25%

B1: ExbD: wild-type E. coli ExbD protein, plasmid-encoded (pKP1194, exbD in pBAD24) (protein, listed as Escherichia coli)
chain: MAMHLNENLDDNGEMHDINVTPFIDVMLVLLIIFMVAAPLAIVDVKVNLPASTSTPQPRPEKPVYLSVKADNSMFIGNDPVTDETMITALNALTEGKKDITIFFRADKTVDYETLMKVMDTLHQAGYLKIGLVGEETAKAK
Question: How did the “Initial Rate of Transport” value ([5]; 55Fe-loaded ferrichrome, plasmid-encoded ExbD variant in strain KP1522) turn out when B1 was run?
Answer: The value was 672.2 ± 15.97.

Question: And the “% Wild-type Activity” value ([5]; initial rate of variant strain divided by initial rate of wild-type strain x 100, strain KP1522)?
Answer: The value was 100%.
